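How tested: cells in 96-well plates exposed to compound for 48 hours at five concentrations. GI50 marks 50% less growth. The concentration for full growth arrest is given as TGI.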
Legend:
Assay in all cases: inhibition of tumour cell growth, NCI panel, 48 h
NCI/ADR-RES ovarian = system: NCI/ADR-RES ovarian
CAKI-1 renal = system: CAKI-1 renal
UACC-62 melanoma = system: UACC-62 melanoma
SK-MEL-5 melanoma = system: SK-MEL-5 melanoma
SN12C renal = system: SN12C renal
A498 renal = system: A498 renal
HOP-92 NSCLC = system: HOP-92 NSCLC
K-562 leukemia = system: K-562 leukemia
SF-539 CNS = system: SF-539 CNS
SW-620 colon = system: SW-620 colon

SMILES	TGI (NCI/ADR-RES ovarian)	TGI (CAKI-1 renal)	TGI (UACC-62 melanoma)	TGI (SK-MEL-5 melanoma)	TGI (SN12C renal)	TGI (A498 renal)	TGI (HOP-92 NSCLC)	TGI (K-562 leukemia)	TGI (SF-539 CNS)	TGI (SW-620 colon)	GI50 (A498 renal)	GI50 (SW-620 colon)	GI50 (NCI/ADR-RES ovarian)	GI50 (CAKI-1 renal)	GI50 (UACC-62 melanoma)	GI50 (SK-MEL-5 melanoma)	GI50 (SN12C renal)	GI50 (HOP-92 NSCLC)	GI50 (K-562 leukemia)	GI50 (SF-539 CNS)
Nc1ccc(C(=O)N/C(=C\c2cccc([N+](=O)[O-])c2)c2nc3[nH]c(=S)[nH]c(=O)c3[nH]2)cc1	> 100 µM	> 100 µM	> 56.2 µM	> 100 µM	> 100 µM	> 100 µM	64.9 µM	> 100 µM	67 µM	> 100 µM	–	–	–	–	–	–	–	–	–	–
CC1CC[P+](c2ccccc2)(c2ccccc2)c2c1ccc1ccccc21 (configuration not stated)	> 100 µM	32.6 µM	20.1 µM	5.16 µM	37.1 µM	88.2 µM	5.43 µM	17.8 µM	35.8 µM	> 100 µM	35.1 µM	5.95 µM	–	–	–	–	–	–	–	–
O=C(Nc1ccccc1)Nc1ccc2cc3ccc(NC(=O)Nc4ccccc4)cc3nc2c1	> 100 µM	12.3 µM	3.21 µM	3.11 µM	2.72 µM	8.87 µM	3.2 µM	1.1 µM	3.01 µM	1.19 µM	2.74 µM	0.331 µM	68.7 µM	2.95 µM	1.75 µM	1.65 µM	1.34 µM	1.58 µM	0.363 µM	1.63 µM
COC(=O)c1ccc(CN2C(=O)C(Cl)=C(Nc3cccc(Cl)c3C)C2=O)cc1	> 100 µM	71.6 µM	> 100 µM	3.94 µM	55.4 µM	15.2 µM	> 100 µM	21.1 µM	58.7 µM	26.4 µM	2.54 µM	3.45 µM	34.8 µM	26.5 µM	13.4 µM	1.08 µM	18.2 µM	17 µM	4.32 µM	23.1 µM
CCc1ccc(CCC(=O)Nc2ncc(Cc3ccc(Cl)cc3)s2)o1	> 75.3 µM	> 100 µM	> 100 µM	> 100 µM	> 100 µM	0.844 µM	> 100 µM	> 100 µM	0.727 µM	> 100 µM	0.208 µM	0.375 µM	0.335 µM	0.451 µM	0.491 µM	0.377 µM	0.753 µM	4.61 µM	0.365 µM	0.245 µM
COc1ccc2c(c1OC)CO[C@@H]2[C@H]1c2c(cc3c(c2OC)OCO3)CCN1S(=O)(=O)c1cn(C)cn1	8.35 µM	> 100 µM	> 100 µM	6.24 µM	> 100 µM	9.75 µM	87.4 µM	> 100 µM	5.66 µM	> 100 µM	0.588 µM	1.2 µM	1.97 µM	1.01 µM	0.803 µM	0.444 µM	3.9 µM	0.783 µM	0.413 µM	1.57 µM
CC1=C2[C@@H](CC1)[C@]1(C)O[C@@](C(C)C)(C[C@H]1OC(=O)CO)[C@H]2OC(=O)C1CC1c1ccccc1 (some centres not stated)	30.8 µM	24 µM	25.6 µM	28.8 µM	27.6 µM	0.943 µM	24.6 µM	36.5 µM	33.8 µM	32.6 µM	0.24 µM	16.4 µM	8.95 µM	11.4 µM	10.9 µM	15.2 µM	9.36 µM	11.8 µM	12.2 µM	17.1 µM

— PubChem BioAssay (NCI)
